According to article PMC8123395, “Aggregation and Its Influence on the Bioactivities of a Novel Antimicrobial Peptide, Temporin-PF, and Its Analogues” (International Journal of Molecular Sciences, 2021):
Converted amounts (≈) assume the structure as drawn. Where two headings read alike, the source gives them in different places. Non-standard residues stand in square brackets, D forms with d. Residues, ends and D or L forms follow the SMILES beside them. No end group written: not given here.

Columns and labels:
[1] = system: Enterococcus faecalis (NCTC 12697); assay type: cell-based
Experimental: (§1) The minimum inhibitory concentration (MIC) and minimum bactericidal concentration (MBC) of peptides against the selected microorganisms were determined using the broth-dilution method, as described in the previous study. […] were used in the assay: Gram-positive bacteria Staphylococcus aureus (NCTC 10788), Enterococcus faecalis (NCTC 12697), and methicillin-resistant S. aureus (MRSA) (NCTC 12493); Gram-negative bacteria Escherichia coli (NCTC 10418), Pseudomonas aeruginosa (ATCC 27853), and Klebsiella pneumoniae (ATCC 43816). All the strains were cultured in Mueller Hinton Broth (MHB), pH 7.4 (Oxiod, Basingstoke, UK). Each peptide was tested at the final concentration from 128 to 1 µM in two-fold dilution. Norfloxacin was applied as the positive control.

[2] = system: Escherichia coli (NCTC 10418); assay type: cell-based
Experimental: as §1

[3] = system: Klebsiella pneumoniae (ATCC 43816); assay type: cell-based
Experimental: as §1

[4] = system: Pseudomonas aeruginosa (ATCC 27853); assay type: cell-based
Experimental: as §1

[5] = system: Staphylococcus aureus (NCTC 10788); assay type: cell-based
Experimental: as §1

[6] = system: methicillin-resistant S. aureus (MRSA) (NCTC 12493); assay type: cell-based
Experimental: as §1

MRSA biofilm = assay type: cell-based; conditions: 24 h
Experimental: (§2) MBIC and MBEC assays were performed as previously described with minor modifications. For the MBIC assay, a suspension of broth diluted bacteria culture (5 × 10^5 CFU/mL) was incubated with the peptide solutions at 37 °C for 24 h. For MBEC assay, 100 μL inoculum culture was seeded to a 96-well-flat-bottom plate and incubated at 37 °C for 48 h to obtain the mature biofilm. Afterwards, the plate was washed by sterile phosphate-buffered saline (PBS; Sigma-Aldrich, Gillingham, UK) twice and treated with a series peptide solution at 37 °C for 24 h. Then, all the plates were washed with PBS and stained by 100 μL 0.1% crystal violet solution (Sigma-Aldrich, Gillingham, UK), and further dissolved by 30% acetic acid (Sigma-Aldrich, Gillingham, UK). The absorbance of each well was recorded by Synergy HT plate reader (Biotech, Minneapolis, MN, USA) at 595 nm.

MRSA mature biofilm = assay type: cell-based
Experimental: as §2

S. aureus biofilm = assay type: cell-based; conditions: 24 h
Experimental: as §2

S. aureus mature biofilm = assay type: cell-based
Experimental: as §2

horse erythrocytes = test: Hemolysis test; assay type: cell-based; conditions: 2% horse erythrocyte suspension; peptide 128 to 1 µM; comparison among the four peptides
Experimental: Figure 9 Hemolytic activity of TPF and the analog against horse red blood cell. The percentage of hemolysis was calculated with the absorbance at 570 nm, compared with PBS-treated red blood cells. The error bar represents SD of five replicates.
The hemolytic activity of each peptide was measured by incubating a range of final peptide concentrations from 128 to 1 µM in a two-fold dilution in a 2% suspension of the horse erythrocytes, as described in a previous study. The absorbance of hemoglobin released from red blood cells was detected at 570 nm. The percentage of hemolysis was calculated by the comparison to the 1% Triton X-100 treated red blood cells.

[7] = Preliminary observation of solubility / hydrogel formation in PBS; assay type: physicochemical; conditions: peptide 10 mg/mL in PBS
Experimental: After the identification of TPF, the chemical synthesis of TPF was performed successfully. […] Therefore, we synthesized the des-Phe1 TPF to investigate the correlation between oligomerize effect and bioactivities. […] Therefore, we further substituted Phe with Trp and D-Trp to reveal the relationship between the oligomerization effect and the zipper motif and the influence on bioactivities (Table 1). The correct synthesis of peptides had been checked by MALDI-TOF mass spectrometry (Supplementary Figure S6) and synthetic yields were calculated (Supplementary Figure S7).

[8] = Circular dichroism, helix content by BeStSel; assay type: physicochemical; conditions: CD, room temperature, BeStSel analysis; for Helix Content % DPPC: 50 μM peptide in 3 mM DPPC SUVs (erythrocyte membrane mimic); for Helix Content % DPPG/DPPE: 50 μM peptide in 3 mM DPPG/DPPE (88:12) SUVs (bacterial membrane mimic); for Helix Content % 50% TFE: 50 μM peptide in 50% TFE/10 mM NH4AC, three scans averaged
Experimental: Figure 8 CD spectra of TPF and the analogs (50 μM) prepared in 10 mM NH4AC, 50% TFE/10 mM NH4AC, 3 mM DPPG/DPPE (88:12) SUVs, and 3 mM DPPC SUVs. The spectra were averaged over three consecutive scans, and the solvent CD signal was subtracted.
The determination of the secondary structure of peptides was conducted using a JASCO J-815 CD Spectropolarimeter (JASCO Inc., Tokyo, Japan) as described in the previous study. Then, 50 μM of each peptide sample was prepared in the aqueous 10 mM ammonium acetate (NH4Ac; Sigma-Aldrich, Gillingham, UK) buffer, 50% (v/v) 2,2,2-trifluoroethanol (TFE; Sigma-Aldrich, Gillingham, UK), and 3 mM DPPG:DPPE (88:12) and DPPC small unilamellar liposomes/vesicles (SUVs) that were used to mimic the bacterial and mammalian erythrocyte cell membranes, respectively. The liposome was hydrated in deionized water and then sonicated for 15 min with an interval 30 s in an ice bath for generating SUVs. Samples were loaded in a 1-mm thickness quartz cuvette and analyzed at room temperature with the following parameters: scan range of 190–250 nm, scanning speed of […], 1 nm bandwidth, and 0.5 nm data pitch. The spectra were obtained by averaging data from three scans. The CD spectra were analyzed by BeStSel (http://bestsel.elte.hu/index.php, accessed on 16 May 2020) for the determination of secondary structure content.

[9] = Observation of aggregation: turbidity (absorbance at 600 nm) in media and salt solutions; assay type: physicochemical; conditions: absorbance 600 nm, three replicates
Experimental: Figure 3 The absorbance of TPF and the analogs prepared in (a) a series of culture media, including PBS, RPMI1640, RPMI1640 with 10% FBS, TSB, and MHB; 0.25, 0.5, and 1 M of (b) Na2HPO4, (c) CaCl2, and (d) MgCl2 solutions. Peptide solutions were prepared from 1 mg/mL, and the wavelength was set as 600 nm. The error bar represents the standard deviation (SD) with three replicates.
The method was followed the previous study with modifications. The purified peptides were prepared at 10 mg/mL in water and subsequently diluted with different solutions, including PBS, RPMI1640, RPMI1640 with 10% FBS, TSB, MHB, Na2HPO4 (0.25, 0.5, and 1 M), CaCl2 (0.25, 0.5, and 1 M), and MgCl2 (0.25, 0.5, and 1 M), in a 96-well plate to achieve the final concentration of 1 mg/mL. The turbidity of each well was detected using the absorbance at 600 nm by a plate reader. The peptides dissolved in water were applied as negative control.

[10] = RP-HPLC retention order of mixed peptides (overall hydrophobicity); assay type: physicochemical; conditions: peptides mixed in equal ratio and subjected to RP-HPLC; Supplementary Figure S4
Experimental: All peptides were chemically synthesized and purified by RP-HPLC. They were further mixed with an equal ratio and subjected to RP-HPLC. […] Subsequently, all peptides (1 mg/mL) were dissolved in a series of widely used culture media (Figure 2).
N-terminal Phe of temporin was believed to participate in the packaging of “head-tail” oligomerization. […] Furthermore, Trp/D-Trp substitution carried out on des-Phe1 TPF enhanced the peptide aggregation. […] It may be related to the decrease of the helical content; however, it could also be caused by the change of aggregation effects. Previous studies have shown that AMPs with strong antimicrobial activity are present as monomers in an aqueous solution and aggregate on the membrane to disrupt the bacterial cell membrane. […] It has been proposed that some aggregation effects of AMPs could limit the interaction of the peptide with its target, thereby reducing the antibacterial efficacy. In the previous study, the zipper-like motif is associated with the bioactivities as well as the assembly in the LPS micelles, which was considered to arise from hydrophobic interactions mainly. However, the overall hydrophobicity of Trp/D-Trp substituted analogs is less than that of des-Phe1 TPF, as estimated by RP-HPLC analysis. We hypothesize that the enhanced assembly seen for Trp/D-Trp substituted analogs might be related to the increased content of aromatic residues, because it could promote the strength of π stacking or cation-π type interaction. However, the true relation has not been fully clarified so far, and the capability of aromatic moieties to promote aggregation could also be affected by the hydrophobicity, position, and the neighboring side chains in their three-dimensional conformation.

[11] = E. faecalis NCTC 12697, broth dilution in MHB pH 7.4, peptide 128 to 1 µM
[12] = E. coli NCTC 10418, broth dilution in MHB pH 7.4, peptide 128 to 1 µM
[13] = K. pneumoniae ATCC 43816, broth dilution in MHB pH 7.4, peptide 128 to 1 µM
[14] = P. aeruginosa ATCC 27853, broth dilution in MHB pH 7.4, peptide 128 to 1 µM
[15] = S. aureus NCTC 10788, broth dilution in MHB pH 7.4, peptide 128 to 1 µM two-fold dilution
[16] = MRSA NCTC 12493, broth dilution in MHB pH 7.4, peptide 128 to 1 µM

| Compound | MBC ([1]; NCTC 12697, pH 7.4) [µM] | MIC ([1]; NCTC 12697, pH 7.4) [µM] | MBC ([2]; NCTC 10418, pH 7.4) [µM] | MIC ([2]; NCTC 10418, pH 7.4) [µM] | MBC ([3]; ATCC 43816, pH 7.4) [µM] | MIC ([3]; ATCC 43816, pH 7.4) [µM] | MBC ([4]; ATCC 27853, pH 7.4) [µM] | MIC ([4]; ATCC 27853, pH 7.4) [µM] | MBC ([5]; NCTC 10788, pH 7.4) [µM] | MIC ([5]; NCTC 10788, pH 7.4) [µM] | MBC ([6]; NCTC 12493, pH 7.4) [µM] | MIC ([6]; NCTC 12493, pH 7.4) [µM] | MBIC (MRSA biofilm; biofilm) | MBEC (MRSA mature biofilm; mature biofilm, 48 h) | MBIC (S. aureus biofilm; biofilm) | MBEC (S. aureus mature biofilm; mature biofilm, 48 h) | Helix Content % DPPC [8] [%] | Helix Content % DPPG/DPPE [8] [%] | Helix Content % 50% TFE [8] [%] | order of retention time (RP-HPLC, used as estimate of overall hydrophobicity) [10] | other results |
| --- | --- | --- | --- | --- | --- | --- | --- | --- | --- | --- | --- | --- | --- | --- | --- | --- | --- | --- | --- | --- | --- |
| FLPLIAGLFGKIF-NH2 [TPF] | – | – | – | – | – | – | – | – | – | – | – | – | – | – | – | – | – | – | – | – | MBC [1, 11]: 16 µM; MIC [1, 11]: 16 µM; MBC [2, 12]: > 128 µM; MIC [2, 12]: > 128 µM; MBC [3, 13]: > 128 µM; MIC [3, 13]: > 128 µM; MBC [4, 14]: > 128 µM; MIC [4, 14]: > 128 µM; MBC [5, 15]: 32 µM; MIC [5, 15]: 4 µM; MBC [6, 16]: 4 µM; MIC [6, 16]: 4 µM; MBIC (MRSA biofilm; MRSA, 5 × 10^5 CFU/mL with peptide, 37 °C, crystal violet, absorbance 595 nm): 4 µM; MBEC (MRSA mature biofilm; MRSA, 48 h mature biofilm treated with peptide 37 °C, 24 h, crystal violet, absorbance 595 nm): 16 µM; MBIC (S. aureus biofilm; S. aureus, 5 × 10^5 CFU/mL with peptide, 37 °C, crystal violet, absorbance 595 nm): 4 µM; MBEC (S. aureus mature biofilm; S. aureus, 48 h mature biofilm treated with peptide 37 °C, 24 h, crystal violet, absorbance 595 nm): 32 µM; hemolytic activity (in words) (horse erythrocytes): strongest hemhemolytic activity; solubility in PBS [7]: significantly decreased |
| LPLIAGLWGKIW-NH2 [W-des-Phe1 TPF] | 128 | 128 | 128 | 128 | 128 | 128 | > 128 | > 128 | 32 | 32 | 128 | 128 | 128/>128 µM | 128/>128 µM | 64 µM | > 128 µM | 10.1 | 26.9 | 27.7 | TPF> des-Phe1 TPF> W-des-Phe1 TPF> dW-des-Phe1 TPF | turbidity in culture media ([9]; peptide 1 mg/mL diluted from 10 mg/mL in water, PBS, RPMI1640, RPMI1640 with 10% FBS, TSB, MHB): increased outstandingly; salting-out effect in Na2HPO4 solutions ([9]; peptide 1 mg/mL, 0.25, 0.5 and 1 M Na2HPO4): strongest salting-out effect |
| CC[C@H](C)[C@H](NC(=O)[C@H](CC(C)C)NC(=O)[C@@H]1CCCN1C(=O)[C@@H](N)CC(C)C)C(=O)N[C@@H](C)C(=O)NCC(=O)N[C@@H](CC(C)C)C(=O)N[C@H](Cc1c[nH]c2ccccc12)C(=O)NCC(=O)N[C@@H](CCCCN)C(=O)N[C@H](C(=O)N[C@H](Cc1c[nH]c2ccccc12)C(N)=O)[C@@H](C)CC [dW-des-Phe1 TPF] (H-LPLIAGL[dW]GKI[dW]-NH2; N-terminus assumed) | > 128 | > 128 | > 128 | > 128 | > 128 | > 128 | > 128 | > 128 | 64 (≈ 87.4 µg/mL) | 64 (≈ 87.4 µg/mL) | > 128 | > 128 | >128/>128 µM | >128/>128 µM | >128/>128 µM | >128/>128 µM | 8.3 | 0.5 | 3.0 | TPF> des-Phe1 TPF> W-des-Phe1 TPF> dW-des-Phe1 TPF | – |
